Measured values published in PubChem BioAssay AID1205 (EPA DSSTox, 2008).
Calls of active or inactive are those of the source.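 Rule for the calls: active = tumour findings in long-term animal cancer tests in more than one sex, species or organ; inactive = no tumour finding and more than one negative test.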

test: DSSTox (CPDBAS) Carcinogenic Potency Database Summary MultiCellCall Results; conditions: animal carcinogenicity bioassays, multi-cell call summary
Procedure, shortened: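 Summary call drawn from chronic long-term cancer bioassays in rats, mice, hamsters, dogs and nonhuman primates, using the most positive result per sex-species. Score: multispecies=50, multisex=30, multisite=20, summed for combinations.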

Which outcome does the source give for `O=C(O)c1ccccc1` here?
Its outcome is “inactive; multisex inactive; multispecies inactive”.

For `CN(C)CCOC(C)(c1ccccc1)c1ccccn1` (stereo not given), which outcome is on record?
The outcome was “active; multisite active; multisex active; multispecies active”.

Which outcome does the source give for `CC(C)NCC(O)COc1ccc(CC(N)=O)cc1` (stereo not given) here?
The outcome was “inactive; multisex inactive”.

For `CC/C=C(/CC)[N+](=O)[O-]`, which outcome is on record?
The outcome was “active; multispecies active”.

Which outcome does the source give for `CC(=O)N(O)c1ccc2c(c1)Cc1ccccc1-2` here?
Its outcome is “active; multisite active; multisex active; multispecies active”.

For `Cc1cc(O)c2c(c1O)C(=O)C13C(=C2O)C(=O)C2C(O)C1C1C(O)C3C(=O)C3=C(O)c4c(O)cc(C)c(O)c4C(=O)C321` (stereo not given), which outcome is on record?
Its outcome is “active; multisex active”.

For `CC(C)Nc1nc(Cl)nc(NC(C)C)n1`, which outcome is on record?
The outcome was “inactive; multisex inactive”.

Which outcome does the source give for `O=C([O-])C(=O)O.O=C([O-])C(=O)O.[K+].[K+].[O]=[Ti]` here?
Its outcome is “inactive; multisex inactive”.

For `COc1ccc(N)cc1N`, which outcome is on record?
The outcome was “active; multisite active; multisex active; multispecies active”.

With `CCN(CC)c1cc2oc3cc(=[N+](CC)CC)c(C)cc-3c(-c3ccc(S(=O)(=O)O)cc3S(=O)(=O)[O-])c2cc1C` as the molecule, how does the outcome read?
Its outcome is “inactive; multisex inactive”.
